Reference: patent publication US20170166598A1, “HETEROARYL COMPOUNDS FOR KINASE INHIBITION” (ARIAD PHARMACEUTICALS, INC., priority 2014, published 2017)

Tests used:
Type in all cases: cell-based
[1] = molecular target: T1, human EGFR exon 20 insertion ASV (V769_D770insASV) (Homo sapiens, UniProt P00533, INS769ASV); experiment: Ba/F3-EGFR-Exon20-ASV cell anti-proliferative assay (CellTiter 96 MTS, 72 h); conditions: Ba/F3-EGFR-Exon20-ASV cells
T1 construct: expressed in transfected cells; host or cells: Ba/F3 (murine pro-B) cells transduced with lentivirus from pLVX-IRES puro
In short: (§1)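 Viable-cell readout used absorbance at 490 nm of MTS-derived formazan, 2 h after reagent addition, following 72 h compound treatment at 37 °C, 5% CO2. Cells: puromycin-selected, IL-3-depleted Ba/F3 expressing EGFR exon 20 ASV or NPG; dosing 4-fold series from 10,000 nM.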

[2] = molecular target: T2, Her2 exon 20 YVMA insertion (A775_G776ins YVMA) (Homo sapiens, UniProt P04626, INS775YVMA); experiment: Ba/F3-Her2 Exon20 YVMA cell anti-proliferative assay (CellTiter 96 MTS, 72 h); conditions: Ba/F3-Her2 Exon20 YVMA cells
T2 construct: expressed in transfected cells; host or cells: Ba/F3 (murine pro-B) cells transduced with lentivirus from pLVX-IRES puro
In short: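 Anti-proliferation: compound series (top 10,000 nM, 4-fold steps) was applied to Ba/F3-Her2 Exon20 YVMA cells grown without IL-3 for 72 h. Viability was read colorimetrically (CellTiter 96 Aqueous One, A490, 2 h reagent incubation).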

[3] = molecular target: T3, human EGFR exon 20 insertion NPG (H773_V774insNPG) (Homo sapiens, UniProt P00533, INS772GNP); experiment: Ba/F3-EGFR-Exon20-NPG cell anti-proliferative assay (CellTiter 96 MTS, 72 h); conditions: Ba/F3-EGFR-Exon20-NPG cells
T3 construct: expressed in transfected cells; host or cells: Ba/F3 (murine pro-B) cells transduced with lentivirus from pLVX-IRES puro
In short: as §1

[4] = molecular target: T4, human EGFR E746-A750 deletion and T790M Mutation (Homo sapiens, UniProt P00533, DEL746-750/T790M); experiment: Ba/F3-EGFR-Del/T790M cell anti-proliferative assay (CellTiter 96 MTS, 72 h); conditions: Ba/F3-EGFR-Del/T790M cells
T4 construct: expressed in transfected cells; host or cells: Ba/F3 (murine pro-B) cells transduced with lentivirus from pLVX-IRES puro
In short: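 Compound exposure: 72 h, 37 °C, 4-fold series topping at 10,000 nM. Target cells are Ba/F3 transduced with EGFR exon 19 deletion plus T790M, selected by puromycin and IL-3 withdrawal. Viable cell number inferred from MTS metabolic conversion, A490 read 2 h after reagent addition.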

T4 sequence (P00533 with tags, fused parts or gaps DEL746-750/T790M): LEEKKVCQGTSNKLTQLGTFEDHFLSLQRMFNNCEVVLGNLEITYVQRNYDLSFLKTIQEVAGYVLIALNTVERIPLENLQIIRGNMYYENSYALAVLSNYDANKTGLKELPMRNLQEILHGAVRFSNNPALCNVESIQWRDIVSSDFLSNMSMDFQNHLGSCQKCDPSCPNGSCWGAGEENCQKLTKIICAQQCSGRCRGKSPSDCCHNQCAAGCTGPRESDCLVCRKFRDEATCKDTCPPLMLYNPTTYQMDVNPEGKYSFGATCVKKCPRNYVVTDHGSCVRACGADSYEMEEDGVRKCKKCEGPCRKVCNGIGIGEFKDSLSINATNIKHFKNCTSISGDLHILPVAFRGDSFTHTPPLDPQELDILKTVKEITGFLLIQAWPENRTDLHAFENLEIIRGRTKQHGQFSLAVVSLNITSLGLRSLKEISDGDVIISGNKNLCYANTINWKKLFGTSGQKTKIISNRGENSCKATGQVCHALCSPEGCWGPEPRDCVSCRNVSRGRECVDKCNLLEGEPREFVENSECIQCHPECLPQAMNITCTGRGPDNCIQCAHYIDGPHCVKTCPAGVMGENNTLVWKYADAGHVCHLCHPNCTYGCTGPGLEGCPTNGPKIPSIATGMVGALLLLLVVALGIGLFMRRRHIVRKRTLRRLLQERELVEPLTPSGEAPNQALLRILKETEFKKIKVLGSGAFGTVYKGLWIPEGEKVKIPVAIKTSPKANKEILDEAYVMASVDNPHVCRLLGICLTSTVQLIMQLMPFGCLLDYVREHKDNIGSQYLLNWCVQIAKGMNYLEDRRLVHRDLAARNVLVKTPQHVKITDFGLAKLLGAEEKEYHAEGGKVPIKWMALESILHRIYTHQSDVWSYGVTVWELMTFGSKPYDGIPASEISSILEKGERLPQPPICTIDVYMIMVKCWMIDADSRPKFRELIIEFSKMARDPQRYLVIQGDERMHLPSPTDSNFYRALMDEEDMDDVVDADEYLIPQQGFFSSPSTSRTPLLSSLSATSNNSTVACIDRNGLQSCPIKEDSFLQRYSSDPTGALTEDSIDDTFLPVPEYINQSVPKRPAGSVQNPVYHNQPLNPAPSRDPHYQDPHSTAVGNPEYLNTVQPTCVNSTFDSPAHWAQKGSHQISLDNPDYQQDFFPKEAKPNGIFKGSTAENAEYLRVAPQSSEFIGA
T1 sequence (P00533 with tags, fused parts or gaps INS769ASV): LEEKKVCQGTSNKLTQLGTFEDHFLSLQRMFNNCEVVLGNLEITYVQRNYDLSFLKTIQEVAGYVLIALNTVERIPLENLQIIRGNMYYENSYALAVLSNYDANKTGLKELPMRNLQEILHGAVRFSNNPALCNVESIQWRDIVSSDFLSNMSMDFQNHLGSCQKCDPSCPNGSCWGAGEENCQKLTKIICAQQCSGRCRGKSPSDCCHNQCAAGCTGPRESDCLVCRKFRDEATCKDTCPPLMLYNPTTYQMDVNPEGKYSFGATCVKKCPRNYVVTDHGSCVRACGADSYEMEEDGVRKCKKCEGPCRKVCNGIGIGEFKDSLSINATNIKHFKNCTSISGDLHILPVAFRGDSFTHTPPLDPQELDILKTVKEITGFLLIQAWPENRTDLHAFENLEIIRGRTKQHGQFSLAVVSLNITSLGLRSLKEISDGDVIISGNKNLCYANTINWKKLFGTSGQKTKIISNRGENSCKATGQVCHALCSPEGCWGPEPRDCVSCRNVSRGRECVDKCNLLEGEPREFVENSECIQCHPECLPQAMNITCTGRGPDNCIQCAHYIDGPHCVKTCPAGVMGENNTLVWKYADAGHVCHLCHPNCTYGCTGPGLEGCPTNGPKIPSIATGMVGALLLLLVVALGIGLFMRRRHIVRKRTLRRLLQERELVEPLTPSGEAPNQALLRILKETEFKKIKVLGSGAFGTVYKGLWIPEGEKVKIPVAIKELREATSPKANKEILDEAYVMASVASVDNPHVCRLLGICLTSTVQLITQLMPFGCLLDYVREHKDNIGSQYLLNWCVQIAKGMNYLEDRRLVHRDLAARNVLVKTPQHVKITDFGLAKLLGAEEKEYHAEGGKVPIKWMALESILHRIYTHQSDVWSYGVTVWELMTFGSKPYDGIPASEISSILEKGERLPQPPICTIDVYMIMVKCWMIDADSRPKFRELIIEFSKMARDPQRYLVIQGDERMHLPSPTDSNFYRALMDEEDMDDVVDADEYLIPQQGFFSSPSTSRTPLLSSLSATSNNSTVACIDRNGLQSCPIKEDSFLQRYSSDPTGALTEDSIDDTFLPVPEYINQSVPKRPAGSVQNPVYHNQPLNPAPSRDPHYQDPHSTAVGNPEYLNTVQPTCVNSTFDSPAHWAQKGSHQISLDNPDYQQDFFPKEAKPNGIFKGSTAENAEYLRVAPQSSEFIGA
T3 sequence (P00533 with tags, fused parts or gaps INS772GNP): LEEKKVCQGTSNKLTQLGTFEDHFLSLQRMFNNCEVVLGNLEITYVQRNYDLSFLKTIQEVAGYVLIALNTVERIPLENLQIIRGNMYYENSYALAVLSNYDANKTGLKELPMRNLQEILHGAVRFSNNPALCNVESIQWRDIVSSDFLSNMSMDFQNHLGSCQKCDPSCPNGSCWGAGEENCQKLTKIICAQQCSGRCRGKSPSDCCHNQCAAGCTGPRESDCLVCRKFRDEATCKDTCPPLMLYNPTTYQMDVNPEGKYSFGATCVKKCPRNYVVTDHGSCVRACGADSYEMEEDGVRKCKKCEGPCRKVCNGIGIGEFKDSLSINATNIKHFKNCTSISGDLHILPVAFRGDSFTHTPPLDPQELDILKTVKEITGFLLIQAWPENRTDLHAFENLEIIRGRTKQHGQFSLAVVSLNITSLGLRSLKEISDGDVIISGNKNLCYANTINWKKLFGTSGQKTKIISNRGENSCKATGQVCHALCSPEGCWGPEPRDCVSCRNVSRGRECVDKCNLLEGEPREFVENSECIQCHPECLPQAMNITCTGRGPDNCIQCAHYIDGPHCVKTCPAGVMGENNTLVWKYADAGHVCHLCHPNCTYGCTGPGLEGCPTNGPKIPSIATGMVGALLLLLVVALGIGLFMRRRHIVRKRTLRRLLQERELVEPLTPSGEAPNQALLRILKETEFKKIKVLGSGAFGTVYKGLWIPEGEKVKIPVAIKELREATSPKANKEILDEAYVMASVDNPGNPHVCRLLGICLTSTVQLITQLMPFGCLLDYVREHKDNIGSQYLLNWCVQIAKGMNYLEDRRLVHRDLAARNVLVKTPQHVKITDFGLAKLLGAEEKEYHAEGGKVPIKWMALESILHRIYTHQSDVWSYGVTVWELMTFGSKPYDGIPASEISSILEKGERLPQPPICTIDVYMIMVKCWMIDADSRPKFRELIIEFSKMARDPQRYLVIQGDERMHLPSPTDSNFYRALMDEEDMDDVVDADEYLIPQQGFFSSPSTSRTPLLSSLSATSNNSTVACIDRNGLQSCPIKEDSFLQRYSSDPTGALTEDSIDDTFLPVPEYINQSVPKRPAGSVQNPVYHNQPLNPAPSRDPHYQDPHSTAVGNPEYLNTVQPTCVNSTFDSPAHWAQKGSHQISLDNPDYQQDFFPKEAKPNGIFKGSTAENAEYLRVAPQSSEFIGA
T2 sequence (P04626 with tags, fused parts or gaps INS775YVMA): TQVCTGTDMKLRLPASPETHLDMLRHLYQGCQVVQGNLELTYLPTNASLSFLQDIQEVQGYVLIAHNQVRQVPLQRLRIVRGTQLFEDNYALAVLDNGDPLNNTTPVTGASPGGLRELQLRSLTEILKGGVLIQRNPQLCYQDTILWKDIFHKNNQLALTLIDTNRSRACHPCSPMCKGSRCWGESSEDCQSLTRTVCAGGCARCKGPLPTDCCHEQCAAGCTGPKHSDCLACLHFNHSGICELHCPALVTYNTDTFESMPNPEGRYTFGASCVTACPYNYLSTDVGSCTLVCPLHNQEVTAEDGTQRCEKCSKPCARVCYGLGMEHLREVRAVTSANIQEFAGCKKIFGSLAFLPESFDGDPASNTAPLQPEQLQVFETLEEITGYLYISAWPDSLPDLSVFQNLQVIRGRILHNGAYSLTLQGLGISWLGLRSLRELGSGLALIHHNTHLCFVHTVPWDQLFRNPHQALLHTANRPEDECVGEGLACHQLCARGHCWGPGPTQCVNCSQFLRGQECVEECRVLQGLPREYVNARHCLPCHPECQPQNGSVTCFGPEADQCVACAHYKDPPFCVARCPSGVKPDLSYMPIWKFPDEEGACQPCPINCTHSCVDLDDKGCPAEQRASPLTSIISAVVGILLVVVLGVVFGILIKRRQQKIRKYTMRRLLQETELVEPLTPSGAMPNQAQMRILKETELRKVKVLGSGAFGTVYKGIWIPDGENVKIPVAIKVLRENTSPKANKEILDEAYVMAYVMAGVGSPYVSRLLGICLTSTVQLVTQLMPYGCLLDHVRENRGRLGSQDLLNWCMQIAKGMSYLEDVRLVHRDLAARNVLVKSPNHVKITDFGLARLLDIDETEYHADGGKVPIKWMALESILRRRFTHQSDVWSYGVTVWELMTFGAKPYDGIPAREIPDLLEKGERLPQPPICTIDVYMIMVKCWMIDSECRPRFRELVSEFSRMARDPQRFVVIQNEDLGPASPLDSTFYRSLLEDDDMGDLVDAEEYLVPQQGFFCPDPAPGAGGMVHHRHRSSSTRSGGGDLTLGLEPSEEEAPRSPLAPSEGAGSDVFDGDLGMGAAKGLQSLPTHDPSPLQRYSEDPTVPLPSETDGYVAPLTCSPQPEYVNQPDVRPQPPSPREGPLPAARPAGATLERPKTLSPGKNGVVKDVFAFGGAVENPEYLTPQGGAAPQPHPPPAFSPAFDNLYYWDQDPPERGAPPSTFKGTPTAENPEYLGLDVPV

| SMILES | IC50 [1] | IC50 [2] | IC50 [3] | EGFR exon 19 deletion and exon 20 T790M mutation IC50 [4] |
| --- | --- | --- | --- | --- |
| C=CC(=O)Nc1cc(Nc2ncc(C(=O)OCC)c(-c3cn4c5c(cccc35)CCC4)n2)c(OC)cc1N(C)CCN(C)C [Example 69, ethyl 2-((5-acrylamido-4-((2-(dimethylamino)ethyl)(methyl)amino)-2-methoxyphenyl)amino)-4-(5,6-dihydro-4H-pyrrolo[3,2,1-ij]quinolin-1-yl)pyrimidine-5-carboxylate] | < 0.1 µM | < 0.1 µM | < 0.1 µM | A (IC50 value for the indicated mutant below about 100 nM) |
| C=CC(=O)Nc1cc(Nc2ncc(CO)c(-c3cn4c5c(cccc35)CCC4)n2)c(OC)cc1N(C)CCN(C)C [Example 70, N-(5-((4-(5,6-dihydro-4H-pyrrolo[3,2,1-ij]quinolin-1-yl)-5-(hydroxymethyl)pyrimidin-2-yl)amino)-2-((2-(dimethylamino)ethyl)-(methyl)amino)-4-methoxyphenyl)acrylamide] | < 0.1 µM | 0.1 to 0.5 µM | < 0.1 µM | A (IC50 value for the indicated mutant below about 100 nM) |
| C=CC(=O)Nc1cc(Nc2ncc(-c3nnco3)c(-c3cn4c5c(cccc35)CCC4)n2)c(OC)cc1N(C)CCN(C)C [Example 71, N-(5-((4-(5,6-dihydro-4H-pyrrolo[3,2,1-ij]quinolin-1-yl)-5-(1,3,4-oxadiazol-2-yl)pyrimidin-2-yl)amino)-2-((2-(dimethylamino)ethyl)(methyl)amino)-4-methoxyphenyl)acrylamide] | < 0.1 µM | < 0.1 µM | < 0.1 µM | A (IC50 value for the indicated mutant below about 100 nM) |
| C=CC(=O)Nc1cc(Nc2nccc(-c3c(N4CCCC4=O)n4c5c(cccc35)CCC4)n2)c(OC)cc1N(C)CCN(C)C [Example 72, N-(2-((2-(dimethylamino)ethyl)(methyl)amino)-4-methoxy-5-((4-(2-(2-oxopyrrolidin-1-yl)-5,6-dihydro-4H-pyrrolo[3,2,1-ij]quinolin-1-yl)pyrimidin-2-yl)amino)phenyl)acrylamide] | < 0.1 µM | 0.1 to 0.5 µM | < 0.1 µM | A (IC50 value for the indicated mutant below about 100 nM) |
| C=CC(=O)Nc1cc(Nc2ncc(C(O)CC)c(-c3cn4c5c(cccc35)CCC4)n2)c(OC)cc1N(C)CCN(C)C (centres unmarked) [Example 73, N-(5-((4-(5,6-dihydro-4H-pyrrolo[3,2,1-ij]quinolin-1-yl)-5-(1-hydroxypropyl)pyrimidin-2-yl)amino)-2-((2-(dimethylamino)ethyl)-(methyl)amino)-4-methoxyphenyl)acrylamide] | < 0.1 µM | 0.1 to 0.5 µM | < 0.1 µM | A (IC50 value for the indicated mutant below about 100 nM) |
| C=CC(=O)Nc1cc(Nc2nccc(-c3c(N4CC[C@@H](O)C4)n4c5c(cccc35)CCC4)n2)c(OC)cc1N(C)CCN(C)C [Example 74, (R)-N-(2-((2-(dimethylamino)ethyl)-(methyl)amino)-5-((4-(2-(3-hydroxypyrrolidin-1-yl)-5,6-dihydro-4H-pyrrolo[3,2,1-ij]quinolin-1-yl)pyrimidin-2-yl)amino)-4-methoxyphenyl)-acrylamide] | < 0.1 µM | 0.1 to 0.5 µM | < 0.1 µM | A (IC50 value for the indicated mutant below about 100 nM) |
| C=CC(=O)Nc1cc(Nc2nccc(-c3c(N4CC[C@H](O)C4)n4c5c(cccc35)CCC4)n2)c(OC)cc1N(C)CCN(C)C [Example 75] | < 0.1 µM | < 0.1 µM | < 0.1 µM | A (IC50 value for the indicated mutant below about 100 nM) |
| COc1cc(F)c(NC(=O)/C=C/CN(C)C)cc1Nc1ncc(Cl)c(-c2cn3c4c(cccc24)OCC3)n1 [Example 82, (E)-N-(5-((5-chloro-4-(2,3-dihydro-[1,4]oxazino[2,3,4-hi]indol-6-yl)pyrimidin-2-yl)amino)-2-fluoro-4-methoxyphenyl)-4-(dimethylamino)but-2-enamide] | 0.5 to 1 µM | > 1 µM | 0.1 to 0.5 µM | A (IC50 value for the indicated mutant below about 100 nM) |
| C=CC(=O)Nc1cc(Nc2ncc(-c3cn[nH]c3)c(-c3cn4c5c(cccc35)CCC4)n2)c(OC)cc1N(C)CCN(C)C [Example 85, N-(5-((4-(5,6-dihydro-4H-pyrrolo[3,2,1-ij]quinolin-1-yl)-5-(1H-pyrazol-4-yl)pyrimidin-2-yl)amino)-2-((2-(dimethylamino)ethyl)(methyl)amino)-4-methoxyphenyl)acrylamide] | < 0.1 µM | < 0.1 µM | < 0.1 µM | A (IC50 value for the indicated mutant below about 100 nM) |
| C=CC(=O)Nc1cc(Nc2ncc(-c3nc(C)no3)c(-c3cn4c5c(cccc35)CCC4)n2)c(OC)cc1N(C)CCN(C)C [Example 86] | < 0.1 µM | < 0.1 µM | < 0.1 µM | A (IC50 value for the indicated mutant below about 100 nM) |
| C=CC(=O)Nc1cc(Nc2ncc(C(CC)OC)c(-c3cn4c5c(cccc35)CCC4)n2)c(OC)cc1N(C)CCN(C)C (centres unmarked) [Example 87] | 0.1 to 0.5 µM | 0.1 to 0.5 µM | < 0.1 µM | A (IC50 value for the indicated mutant below about 100 nM) |
| C=CC(=O)Nc1cc(Nc2ncc(C(=O)CC)c(-c3cn4c5c(cccc35)CCC4)n2)c(OC)cc1N(C)CCN(C)C [Example 88] | < 0.1 µM | < 0.1 µM | < 0.1 µM | A (IC50 value for the indicated mutant below about 100 nM) |
| C=CC(=O)Nc1cc(Nc2ncc(C(=O)OC)c(-c3cn4c5c(cccc35)CCC4)n2)c(OC)cc1N(C)CC1CCCN1C (centres unmarked) [Example 89] | < 0.1 µM | < 0.1 µM | < 0.1 µM | A (IC50 value for the indicated mutant below about 100 nM) |
| C=CC(=O)Nc1cc(Nc2nccc(-c3c(N4CCC(OC)C4)n4c5c(cccc35)CCC4)n2)c(OC)cc1N(C)CCN(C)C (centres unmarked) [Example 90] | 0.1 to 0.5 µM | 0.1 to 0.5 µM | < 0.1 µM | A (IC50 value for the indicated mutant below about 100 nM) |
| C=CC(=O)Nc1cc(Nc2ncc(NC(=O)CC)c(-c3cn4c5c(cccc35)CCC4)n2)c(OC)cc1N(C)CCN(C)C [Example 91] | < 0.1 µM | 0.1 to 0.5 µM | < 0.1 µM | A (IC50 value for the indicated mutant below about 100 nM) |
| C=CC(=O)Nc1cc(Nc2nccc(-c3c(N4CCC(F)C4)n4c5c(cccc35)CCC4)n2)c(OC)cc1N(C)CCN(C)C (centres unmarked) [Example 92] | < 0.1 µM | 0.1 to 0.5 µM | < 0.1 µM | A (IC50 value for the indicated mutant below about 100 nM) |
| C=CC(=O)Nc1cc(Nc2nccc(-c3c(N4CCCC4)n4c5c(cccc35)CCC4)n2)c(OC)cc1N(C)CCN(C)C [Example 93] | < 0.1 µM | 0.1 to 0.5 µM | < 0.1 µM | A (IC50 value for the indicated mutant below about 100 nM) |
| C=CC(=O)Nc1cc(Nc2nccc(-c3c(N4CCN(C)C(=O)C4)n4c5c(cccc35)CCC4)n2)c(OC)cc1N(C)CCN(C)C [Example 94] | 0.1 to 0.5 µM | > 1 µM | 0.1 to 0.5 µM | C (IC50 value for the indicated mutant between greater than about 500 to about 1 μM) |
| C=CC(=O)Nc1cc(Nc2ncc(OCC(F)F)c(-c3cn4c5c(cccc35)CCC4)n2)c(OC)cc1N(C)CCN(C)C [Example 95] | < 0.1 µM | 0.1 to 0.5 µM | < 0.1 µM | A (IC50 value for the indicated mutant below about 100 nM) |
| C=CC(=O)Nc1cc(Nc2ncc(-c3nccn3C)c(-c3cn4c5c(cccc35)CCC4)n2)c(OC)cc1N(C)CCN(C)C [Example 98] | < 0.1 µM | 0.1 to 0.5 µM | < 0.1 µM | A (IC50 value for the indicated mutant below about 100 nM) |
| C=CC(=O)Nc1cc(Nc2ncc(-c3cnn(CC)c3)c(-c3cn4c5c(cccc35)CCC4)n2)c(OC)cc1N(C)CCN(C)C [Example 99] | < 0.1 µM | < 0.1 µM | < 0.1 µM | A (IC50 value for the indicated mutant below about 100 nM) |
| C=CC(=O)Nc1cc(Nc2ncc(-c3cn(C)nc3C)c(-c3cn4c5c(cccc35)CCC4)n2)c(OC)cc1N(C)CCN(C)C [Example 100] | < 0.1 µM | < 0.1 µM | < 0.1 µM | A (IC50 value for the indicated mutant below about 100 nM) |
| C=CC(=O)Nc1cc(Nc2ncc(-c3cc(C)nn3C)c(-c3cn4c5c(cccc35)CCC4)n2)c(OC)cc1N(C)CCN(C)C [Example 101] | < 0.1 µM | < 0.1 µM | < 0.1 µM | A (IC50 value for the indicated mutant below about 100 nM) |
